Reference: PMC11931565, “Exploring medium and long arm extensions of 1,2,4-triazole derivatives as Candida albicans 14α-demethylase (CYP51) inhibitors” (RSC Medicinal Chemistry, 2025)
In brackets after ≈: the same amount, converted by molar mass. Read-outs that look alike come from different tables or passages of the source.

Columns and labels:
native CaCYP51 = biological target: T1, native CaCYP51 (Candida albicans, UniProt P10613); experiment: CaCYP51 type II ligand binding affinity (Kd) from difference spectra saturation curves
T1 construct: made in house; host or cells: E. coli
Method: Azole titration was performed in triplicate.
The ligand–CaCYP51 complex was determined by non-linear regression (Levenberg–Marquardt algorithm) using a rearrangement of the Morrison equation for tight ligand binding,[38] while weak ligand binding was calculated by the Michaelis–Menten equation. Curve fitting for novel azole saturation curves was performed using the computer program ProFit 6.1.12 (QuantumSoft, Zurich, Switzerland) for Mac OSX. Kd values were determined for each of the three replicate titrations per azole compound and then mean Kd values and standard deviations calculated.

[1] = biological target: T2, C. albicans CYP51 (CaCYP51) (Candida albicans, UniProt P10613); experiment: CaCYP51 reconstitution assay (IC50); type: biochemical; details: 1 μM CaCYP51, 60 μM lanosterol, 15 min at 37 °C
T2 construct: made in house; host or cells: E. coli
Method: Derivatives with a MIC <1 μg mL^−1 were chosen for IC50 testing.
C. albicans CYP51 was overexpressed in E. coli and purified and CaCYP51 reconstitutions assays performed.[10,37] The final reaction volume of 500 μL, contained; 1 μM C. albicans CYP51, 2 μM Homo sapiens cytochrome P450 reductase (CPR) (UniProtKB accession number P16435), 60 μM lanosterol, 50 μM dilaurylphosphatidylcholine, 4% w/v 2-hydroypropyl-cyclodextrin, 0.4 mg mL^−1 isocitrate dehydrogenase, 25 mM trisodium isocitrate, 50 mM NaCl, 5 mM MgCl2, and 40 mM MOPS (morpholinepropanesulfonic acid, pH 7.2). Antifungal compounds were added in 2.5 μL DMSO. The reaction was started by the addition of 4 mM NADPH-tetrasodium salt. Samples were shaken for 15 min at 37 °C and sterol metabolites extracted with ethyl acetate and derivatised with BSTFA.

[2] = test system: S. cerevisiae Y2760 overexpressed H. sapiens wild-type CYP51 (HsCYP51); experiment: MIC, recombinant S. cerevisiae strain Y2760 HsCYP51; type: cell-based; details: Saccharomyces cerevisiae; SD medium pH 6.8, 30 °C; 80% inhibition of growth; read-out: MIC Y2760 HsCYP51
Method: (§1) The most promising thiazole derivative 7b, and the extended amide derivatives 13a and 13b were evaluated against a panel of recombinant S. cerevisiae strains[24,31,32] expressing control levels of wild-type CYP51 (ScCYP51), overexpressed wild-type ScCYP51, overexpressed azole-resistant ScCYP51 Y140F/H mutations (S. cerevisiae Y140 equivalent to C. albicans Y132), overexpressed C. albicans efflux pumps MDR1a or CDR1B and overexpressed H. sapiens wild-type CYP51 (HsCYP51) (Table 3) at 24 and 48 h with each assay performed in triplicate.
The HsCYP51 ORF (NP_000777.1) was codon harmonized (ch) using DNA 2.0 for expression in S. cerevisiae and synthesized by ATUM (Newark, Ca, USA). The 3′ end of the ORF was extended to encode EQKI of the ScErg11 C-terminus, followed by a GGR linker and a 6xHis tag. Strain Y2514 was prepared by transforming host strain Y1857 with a transformation cassette including the above construct together with the ScPGK transcription terminator and URA3 selection marker located downstream, bordered by upstream and downstream parts of ScPDR5 gene identical to sequences in ScErg11 over-expressing strain Y941. Strain Y2514 constitutively overexpressed HsCYP51ch-6xHis and URA3 from the ScPDR5 locus.
Strain Y2757 (Y2514, PDR15::HsCPRch-6xHis-LoxP-HIS1-LoxP) was prepared by co-expressing the cognate reductase HsCRP in strain Y2514. Codon harmonisation and synthesis of human NADPH-cytochrome P450 reductase isoform 2 (HsCPRch, NP_001369584.1) ORF was performed by ATUM. The gene was 3′ extended with a sequence encoding GGR-6xHIS. A transformation cassette was prepared by recombinant PCR to include the HsCPRch ORF with 657 nucleotides the ScPDR5 promoter upstream, and the ScPGK terminator followed by the LoxP flanked ScHIS1 selection marker downstream. ScPDR15 specific arms bordering the construct enabled the cassette to be integrated between the nucleotide 441 of the 5′ UTR and nucleotide 1 of the 3′ UTR in PDR15.
Strain Y2758 (Y2757 ΔHIS1) was made using the following steps. Strain Y2757 was transformed with the pSH69 pGAL1-cre plasmid (Euroscarf, Germany) via selection on hygromycin (75 μg mL^−1) containing YPD plates. A single hygromycin positive colony was inoculated in 1% yeast extract, 2% peptone and 2% of galactose broth and incubated for 16 hours at 30 °C with shaking. The diluted culture was then plated on YPD agar and replica-plated on YPD + hygromycin and SD-HIS dropout agar plates. Deletion of the HIS selection marker downstream of HsCPRch-6xHis in the PDR15 locus was confirmed in double His and hygromycin negative isolates by PCR and DNA sequence analysis.
The endogenous ScERG11 ORF in strain Y2758 was removed by transforming with a LoxP- ScHIS1 containing cassette with arms complementing from +387 nucleotides in the 5′UTR and −60 nucleotides in the 3′UTR of the ScERG11 locus, resulting in strain Y2760 (ADΔΔ PDR5::HsCYP51ch-6×HIS-URA3; PDR15::HsCPRch6×HIS-LoxP, ΔERG11-LoxP-HIS1-LoxP).
(§2) Minimum inhibitory concentration (MIC) were determined according to recommendations outlined in the Clinical and Laboratory Standards Institute (CLSI) document M27-Ed4E[39] with modifications. Sabouraud dextrose (SD) medium (pH 6.8) was used instead of RPMI-1640 for inoculum and growth of the S. cerevisiae strains and cultures were incubated at 30 °C. […] Stock solutions of each agent were prepared in DMSO and the final concentration of DMSO was 1% (v/v) in SD. […] The final concentration of all other compounds ranged from 0.03–16 μg mL^−1. Three biological repeats were performed.

[3] = test system: S. cerevisiae Y2300 overexpressed wild-type ScCYP51; experiment: MIC, recombinant S. cerevisiae strain Y2300 ScCYP51; type: cell-based; details: Saccharomyces cerevisiae; SD medium pH 6.8, 30 °C; 80% inhibition of growth; read-out: MIC Y2300 ScCYP51
Method: as §1, §2

[4] = test system: S. cerevisiae Y2411 parent (control levels of wild-type ScCYP51); experiment: MIC, recombinant S. cerevisiae strain Y2411 parent; type: cell-based; details: Saccharomyces cerevisiae; SD medium pH 6.8, 30 °C; 80% inhibition of growth; read-out: MIC Y2411 parent
Method: as §1, §2

[5] = test system: C. albicans wild-type clinical isolate CA14; experiment: C. albicans susceptibility testing (CLSI broth microdilution MIC), strain CA14; type: cell-based, Candida albicans; details: RPMI 1640, 37 °C, read at 48 h; for MIC: Candida albicans
Text: (§3) Each novel compound was screened against C. albicans wild-type clinical isolate CA14 and C. albicans laboratory strain SC5314 using the standardised CLSI M27-S4 broth dilution method.[28] […] This might be explained by the clog P data as the more lipophilic compounds should more readily penetrate the fungal membrane resulting in improved uptake or may relate to optimal fill of the small hydrophobic pocket leading to improved binding.
(§4) Antifungal MIC values were obtained according to the CLSI microdilution method for yeasts.[28]C. albicans strains CA14 and SC5314 were tested in triplicate. Cultures were diluted to 2.5 × 10^3 cells per mL in RPMI 1640 (Sigma), buffered with 0.165 M MOPS, pH 7.0. Antifungal compounds were dissolved in DMSO and added at a final concentration of 1% v/v DMSO. Plates were incubated at 37 °C and read at 48 h.

[6] = test system: S. cerevisiae Y2301 overexpressed ScCYP51 Y140F; experiment: MIC, recombinant S. cerevisiae strain Y2301 Y140F; type: cell-based; details: Saccharomyces cerevisiae, pH 6.8, read-out: MIC Y2301 Y140F
Method: as §1, §2

[7] = test system: C. albicans laboratory strain SC5314; experiment: C. albicans susceptibility testing (CLSI broth microdilution MIC), strain SC5314; type: cell-based, Candida albicans; details: RPMI 1640, 37 °C, read at 48 h; for MIC: Candida albicans, SC5314, 48 h
Text: as §3, §4

[8] = test system: S. cerevisiae Y570 overexpressing C. albicans ABC transporter CDR1B; experiment: MIC, recombinant S. cerevisiae strain Y570 CaCDR1B; type: cell-based; details: SD medium pH 6.8, 30 °C; 80% inhibition of growth
Method: as §1, §2

[9] = test system: S. cerevisiae Y2513 overexpressed ScCYP51 Y140H; experiment: MIC, recombinant S. cerevisiae strain Y2513 Y140H; type: cell-based; details: Saccharomyces cerevisiae, pH 6.8, read-out: MIC Y2513 Y140H
Method: as §1, §2

[10] = test system: S. cerevisiae Y525 overexpressing C. albicans MFS transporter MDR1a; experiment: MIC, recombinant S. cerevisiae strain Y525 CaMDR1a; type: cell-based; details: SD medium pH 6.8, 30 °C; 80% inhibition of growth
Method: as §2

[11] = 2.5 μM native CaCYP51, mean ± SD of three titrations, read-out: K d

T2 sequence (P10613 whole entry): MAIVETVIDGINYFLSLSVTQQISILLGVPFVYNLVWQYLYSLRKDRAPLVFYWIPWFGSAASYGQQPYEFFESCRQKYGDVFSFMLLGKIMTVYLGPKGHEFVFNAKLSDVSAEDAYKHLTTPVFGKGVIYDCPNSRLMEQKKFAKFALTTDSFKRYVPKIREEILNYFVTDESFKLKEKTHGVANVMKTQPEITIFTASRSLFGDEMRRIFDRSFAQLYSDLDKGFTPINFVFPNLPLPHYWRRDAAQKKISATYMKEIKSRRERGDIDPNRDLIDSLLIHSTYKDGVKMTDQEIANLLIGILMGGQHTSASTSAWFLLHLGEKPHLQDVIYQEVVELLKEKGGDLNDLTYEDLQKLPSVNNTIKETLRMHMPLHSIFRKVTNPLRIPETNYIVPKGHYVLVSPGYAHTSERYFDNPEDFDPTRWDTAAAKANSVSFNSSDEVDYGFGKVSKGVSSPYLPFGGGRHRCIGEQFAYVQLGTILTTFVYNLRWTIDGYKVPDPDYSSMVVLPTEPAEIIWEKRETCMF
T1 sequence (P10613 whole entry): as above

SMILES: O=C(NCC(O)(Cn1cncn1)c1ccc(Cl)cc1Cl)c1csc(Cl)n1 (stereo not shown) [7b, 2-Chloro-N-(2-(2,4-dichlorophenyl)-2-hydroxy-3-(1H-1,2,4-triazol-1-yl)propyl)thiazole-4-carboxamide]
- Kd (native CaCYP51; [11]): 106 ± 15 nM
- IC50 [1]: 410 nM
- MIC [2]: > 16 µg/mL
- MIC [3]: 0.5 to 1 µg/mL
- MIC [4]: 0.125 µg/mL
- MIC [5]: < 0.03 µg/mL
- MIC CA14 [5]: <0.03 µg/mL
- MIC [6]: 4 µg/mL
- MIC [7]: < 0.03 µg/mL
- MIC SC5314 [7]: <0.03 µg/mL
- MIC [8]: > 16 µg/mL
- MIC [9]: 2 to 4 µg/mL
- MIC [10]: 2 µg/mL

SMILES: O=C(NCC(O)(Cn1cncn1)c1ccc(Cl)cc1)c1ccc(NC(=O)c2ccc(Cl)cc2)cc1 (stereo not shown) [13a, 4-Chloro-N-(4-((2-(4-chlorophenyl)-2-hydroxy-3-(1H-1,2,4-triazol-1-yl)propyl)carbamoyl)phenyl)benzamide]
- Kd (native CaCYP51; [11]): 46 ± 8 nM
- IC50 [1]: 560 nM
- MIC [2]: > 16 µg/mL
- MIC [3]: 1 to 2 µg/mL
- MIC [4]: 0.25 µg/mL
- MIC [5]: < 0.03 µg/mL
- MIC CA14 [5]: <0.03 µg/mL
- MIC [6]: 1 to 2 µg/mL
- MIC [7]: < 0.03 µg/mL
- MIC SC5314 [7]: <0.03 µg/mL
- MIC [8]: > 16 µg/mL
- MIC [9]: 1 µg/mL
- MIC [10]: 0.125 µg/mL

SMILES: O=C(NCC(O)(Cn1cncn1)c1ccc(Cl)cc1Cl)c1ccc(NC(=O)c2ccc(Cl)cc2)cc1 (stereo not shown) [13b, 4-Chloro-N-(4-((2-(2,4-dichlorophenyl)-2-hydroxy-3-(1H-1,2,4-triazol-1-yl)propyl)carbamoyl)phenyl)benzamide]
- Kd (native CaCYP51; [11]): 166 ± 39 nM
- IC50 [1]: 480 nM
- MIC [2]: 4 to 8 µg/mL
- MIC [3]: 0.25 µg/mL
- MIC [4]: 0.03 to 0.06 µg/mL
- MIC [5]: < 0.03 µg/mL
- MIC CA14 [5]: <0.03 µg/mL
- MIC [6]: 0.25 µg/mL
- MIC [7]: < 0.03 µg/mL
- MIC SC5314 [7]: <0.03 µg/mL
- MIC [8]: > 16 µg/mL
- MIC [9]: 0.125 µg/mL
- MIC [10]: 0.03 to 0.06 µg/mL

SMILES: OC(Cn1cncn1)(Cn1cncn1)c1ccc(F)cc1F [FLZ, Fluconazole, reference compound]
- Kd (native CaCYP51): 31 ± 8 nM
- MIC [2]: > 128 µg/mL
- MIC [3]: 16 µg/mL
- MIC [4]: 4 µg/mL
- MIC [5]: 0.125 µg/mL (≈ 0.408 µM)
- MIC [6]: 32 µg/mL
- MIC [7]: 0.125 µg/mL (≈ 0.408 µM)
- MIC [8]: > 128 µg/mL
- MIC [9]: 32 µg/mL
- MIC [10]: 32 µg/mL
